Numbers after ± are expanded uncertainties.
Assay: molar heat capacity at constant pressure
Settings: Liquid, Twin Calvet

CC(F)F [1,1-difluoroethane]
molar heat capacity at constant pressure [J/K/mol]
Settings	1490 kPa	2070 kPa	2540 kPa	2950 kPa	3440 kPa	4010 kPa	4600 kPa	5030 kPa
305.15 K	121 ± 6.1	121.14 ± 6.1	120.81 ± 6.1	120.28 ± 6.1	119.29 ± 6	119.55 ± 6	118.96 ± 6	118.49 ± 6
310.15 K	121.8 ± 6.1	121.53 ± 6.1	121.07 ± 6.1	120.81 ± 6.1	120.08 ± 6.1	119.75 ± 6	119.35 ± 6	119.09 ± 6
315.15 K	123.84 ± 6.3	123.25 ± 6.2	122.79 ± 6.2	122.46 ± 6.2	121.8 ± 6.1	121.2 ± 6.1	120.61 ± 6.1	120.41 ± 6.1
320.15 K	126.16 ± 6.3	125.23 ± 6.3	124.77 ± 6.3	124.24 ± 6.3	123.71 ± 6.3	122.99 ± 6.2	122.06 ± 6.1	121.8 ± 6.1
325.15 K	129 ± 6.5	127.61 ± 6.4	127.01 ± 6.4	126.42 ± 6.4	125.89 ± 6.3	124.97 ± 6.3	123.84 ± 6.3	123.45 ± 6.2
330.15 K	–	130.65 ± 6.6	129.79 ± 6.5	129.13 ± 6.5	128.47 ± 6.5	127.41 ± 6.4	126.09 ± 6.3	125.63 ± 6.3
335.15 K	–	134.21 ± 6.8	133.22 ± 6.7	132.36 ± 6.7	131.44 ± 6.6	130.18 ± 6.5	128.8 ± 6.5	128.27 ± 6.5
340.15 K	–	–	137.25 ± 6.9	136.06 ± 6.9	134.94 ± 6.8	133.49 ± 6.7	131.9 ± 6.7	131.31 ± 6.6
345.15 K	–	–	141.88 ± 7.1	140.36 ± 7.1	139.04 ± 7	137.32 ± 6.9	135.34 ± 6.8	134.61 ± 6.8
350.15 K	–	–	–	146.1 ± 7.4	144.05 ± 7.3	141.88 ± 7.1	139.43 ± 7.1	138.51 ± 7
355.15 K	–	–	–	–	150.66 ± 7.6	147.56 ± 7.5	144.45 ± 7.3	143.2 ± 7.2
360.15 K	–	–	–	–	–	155.02 ± 7.8	151.06 ± 7.6	149.14 ± 7.5

Reference: the NIST ThermoML archive (doi:10.1021/je500512f)
